According to US20060088552A1, “Method for inhibiting cell death, cell death inhibitor, and remedy for disease caused by cell death containing the cell death inhibitor” (priority 2002, published 2006):

Legend:
[1] = test system: C6 glial cells; test: Whole-cell patch-clamp recording of VacA-induced currents; type: cell-based, rat; conditions: extracellular application, 100 μM, pH 7.4
Description: Using wide-tipped electrodes (to 2 MΩ), observation according to whole-cell recording (patch-clamp methods) was performed at room temperature (23-25° C.) as reported previously (Kubo M., Okada Y., “Volume-regulatory Cl^− channel currents in cultured human epithelial cells”, J. Physiol. 456, 351-371, 1992). Series resistance (<5 MΩ) was compensated (to 60% to 70%) to minimize voltage errors. Time course of current change was monitored by applying (every 15 s) alternating step pulses ([…]) from a holding potential of 0 to ±40 mV. To monitor voltage dependence of a whole-cell volume-sensitive current, step pulses (2-s duration) were applied from a prepotential of −60 mV (2-s duration) to test potentials of −60 to 100 mV in 20 mV increments after attaining steady-state activation of swelling-induced current. […] Instantaneous currents were recorded 2.5 ms after application of step pulses. […] Currents were recorded using an EPC-9 amplifier (HEKA, Lambrechet, Germany). […]
Cell swelling was induced by hypotonic (270 mosmol/kg H2O) solution in which mannitol was reduced to 40 mM. […] Permeability properties of VacA-induced channels were also assessed by using the following solutions: […]
Relative anion permeability was also assessed by replacing 115 mM extracellular Cl^− with aspartate. […]

[2] = test system: C6 glial cells; type: cell-based, rat
Description: Cell volume was assessed according to a Coulter principle using a flow cytometer (EPICS Elite ESP, Coulter Co., Miami, Fla.). Cell viability was also assessed under a flow cytometry by a propidium iodide exclusion test. The cell suspension of 10 ml was incubated at 37° C. fro 1 min after adding 2 μl of PBS containing 10 mg/ml propidium iodide. Mean cell volume was measured at a given time by introducing 350 μl of the cell suspension containing 2×10^4 cells into the flow cytometer. A baseline cell volume was obtained as mean of values measured before and after a 20-min incubation in control solution (pH 7.4). Thereafter, effects of acidosis (pH 6.2), lactacidosis (pH 6.2), or lactate (pH 7.4) were assessed with addition of (i) HCl, (ii) lactate, or (iii) lactate and Tris. After the cells were preincubated with control (pH 7.4), acidic (pH 6.2), or lactacidosis (pH 6.2 with lactate) solution (all isotonic), effects of a hypotonic challenge were also assessed by diluting the isotonic medium with a 30% volume of deionized distilled water.
Composition of control solution employed for cell volume measurements was as follows: 125 mM NaCl, 2.5 mM KCl, 2 mM CaCl2, 1.0 mM MgCl2, 10 mM glucose, 1.25 mM NaH2PO4, and 25 mM NaHCO3 (pH 7.4, in 95% air/5% CO2). […] Molar osmolality measured by a freezing-point depression osmometer (Vogel, Giessen, Germany) was, 300, 306, and 312 mosmol/kg-H2O. […]

Molecule	effect on VacA-mediated current [1]	volume regulation after lactacidosis-induced transient swelling in VacA-treated cells ([2]; 100 μM NPPB, VacA-treated cells)	lactacidosis-induced persistent cell swelling ([2]; pretreatment with gramicidin 0.5 μM)
O=C(O)c1cc([N+](=O)[O-])ccc1NCCCc1ccccc1 [NPPB]	strongly inhibited	abolished	
gramicidin			not prevented
